Source: ChEMBL document CHEMBL4390657, “Discovery of arylbenzylamines as PDE4 inhibitors with potential neuroprotective effect” (Eur J Med Chem, 2019)
Activity calls are given as the source filed them. The rule behind the calls is not given here.

Columns and labels:
[1] = Inhibition of human N-terminal GST-tagged PDE4D7 (2 to 748 residues) expressed in baculovirus infected Sf9 cells using cAMP as substrate after 1 hr by fluorescence polarization assay
[2] = target: T1, 3',5'-cyclic-AMP phosphodiesterase 4B (Homo sapiens, UniProt Q07343); test: Inhibition of human full length N-terminal GST-tagged PDE4B1 expressed in baculovirus infected Sf9 cells using cAMP as substrate incubated for 1 hr by fluorescence polarization assay
T1 sequence (Q07343 whole entry): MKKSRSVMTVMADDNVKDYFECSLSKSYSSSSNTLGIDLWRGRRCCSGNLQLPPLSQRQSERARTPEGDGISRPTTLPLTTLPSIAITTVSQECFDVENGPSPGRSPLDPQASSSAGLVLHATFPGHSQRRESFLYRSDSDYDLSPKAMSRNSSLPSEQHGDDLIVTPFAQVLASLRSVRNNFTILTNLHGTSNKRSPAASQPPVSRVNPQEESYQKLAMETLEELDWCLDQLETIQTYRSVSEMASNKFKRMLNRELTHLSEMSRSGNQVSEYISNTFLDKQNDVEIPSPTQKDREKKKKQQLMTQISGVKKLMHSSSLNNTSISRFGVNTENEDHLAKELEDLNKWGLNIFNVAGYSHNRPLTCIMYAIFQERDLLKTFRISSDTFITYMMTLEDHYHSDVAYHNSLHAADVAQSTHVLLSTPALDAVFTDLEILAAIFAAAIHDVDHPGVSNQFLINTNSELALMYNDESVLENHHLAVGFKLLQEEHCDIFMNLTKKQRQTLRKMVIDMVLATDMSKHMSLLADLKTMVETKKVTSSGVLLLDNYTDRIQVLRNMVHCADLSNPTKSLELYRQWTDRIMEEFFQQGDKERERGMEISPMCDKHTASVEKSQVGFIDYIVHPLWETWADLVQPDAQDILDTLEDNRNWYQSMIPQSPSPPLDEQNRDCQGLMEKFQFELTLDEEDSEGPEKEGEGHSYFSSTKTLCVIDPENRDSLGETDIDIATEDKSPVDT

[3] = target: T1, 3',5'-cyclic-AMP phosphodiesterase 4B; test: Inhibition of human full length N-terminal GST-tagged PDE4B1 expressed in baculovirus infected Sf9 cells using cAMP as substrate incubated for 1 hr by fluorescence polarization assay relative to control
SH-SY5Y [4] = test: Neuroprotective activity against MPP+-induced cell apoptosis in human SH-SY5Y cells assessed as effect on morphological changes at 30 to 60 uM preincubated for 1 hr followed by MPP+ addition and measured after 48 hrs by PI staining based inverse fluorescent microscopic analysis; format: functional
[5] = Oral bioavailability in Sprague-Dawley rat at 10 mg/kg by measured up to 24 hrs by LC-MS /MS analysis; format: ADME, organism-based; details: in vivo
[6] = Half life in Sprague-Dawley rat at 2 mg/kg, iv by measured up to 24 hrs by LC-MS /MS analysis; format: ADME, organism-based; details: in vivo
[7] = Cmax in Sprague-Dawley rat at 10 mg/kg, po by measured up to 24 hrs by LC-MS /MS analysis; format: ADME, organism-based; set-up: dose 10 mg/kg, route oral; details: in vivo
SH-SY5Y [8] = test: Cytotoxicity against human SH-SY5Y cells assessed as reduction in cell viability at 3.1 to 50 uM incubated for 48 hrs by MTT assay; format: cell-based
[9] = Tmax in Sprague-Dawley rat at 10 mg/kg, po by measured up to 24 hrs by LC-MS /MS analysis; format: ADME, organism-based; details: in vivo
[10] = Clearance in Sprague-Dawley rat at 2 mg/kg, iv by measured up to 24 hrs by LC-MS /MS analysis; format: ADME, organism-based; details: in vivo
[11] = Cmax in Sprague-Dawley rat at 2 mg/kg, iv by measured up to 24 hrs by LC-MS /MS analysis; format: ADME, organism-based; set-up: dose 2 mg/kg, route intravenous; details: in vivo
[12] = AUC (0 to t) in Sprague-Dawley rat at 10 mg/kg, po by measured up to 24 hrs by LC-MS /MS analysis; format: ADME, organism-based; set-up: time < 24 hr, dose 10 mg/kg, route oral; details: in vivo
SH-SY5Y [13] = test: Neuroprotective activity in human SH-SY5Y cells assessed as reduction in MPP+ induced cytotoxicity at 30 to 60 uM preincubated for 1 hr followed by MPP+ addition and measured after 48 hrs by MTT assay; format: functional, cell-based
[14] = Mean residence time (0 to infinity) in Sprague-Dawley rat at 10 mg/kg, po by measured up to 24 hrs by LC-MS /MS analysis; format: ADME, organism-based; details: in vivo
[15] = Tmax in Sprague-Dawley rat at 2 mg/kg, iv by measured up to 24 hrs by LC-MS /MS analysis; format: ADME, organism-based; details: in vivo
[16] = Volume of distribution at steady state in Sprague-Dawley rat at 2 mg/kg, iv by measured up to 24 hrs by LC-MS /MS analysis; format: ADME, organism-based; details: in vivo, read-out: Vdss
[17] = Mean residence time (0 to infinity) in Sprague-Dawley rat at 2 mg/kg, iv by measured up to 24 hrs by LC-MS /MS analysis; format: ADME, organism-based; details: in vivo
[18] = AUC (0 to t) in Sprague-Dawley rat at 2 mg/kg, iv by measured up to 24 hrs by LC-MS /MS analysis; format: ADME, organism-based; set-up: dose 2 mg/kg, time < 24 hr, route intravenous; details: in vivo
[19] = AUC (0 to infinity) in Sprague-Dawley rat at 10 mg/kg, po by measured up to 24 hrs by LC-MS /MS analysis; format: ADME, organism-based; set-up: dose 10 mg/kg, time infinity, route oral; details: in vivo
[20] = AUC (0 to infinity) in Sprague-Dawley rat at 2 mg/kg, iv by measured up to 24 hrs by LC-MS /MS analysis; format: ADME, organism-based; set-up: dose 2 mg/kg, time infinity, route intravenous; details: in vivo
[21] = Half life in Sprague-Dawley rat at 10 mg/kg, po by measured up to 24 hrs by LC-MS /MS analysis; format: ADME, organism-based; details: in vivo

| SMILES | IC50 [1] [µM] | IC50 [2] [µM] | also measured |
| --- | --- | --- | --- |
| COc1ccc(C2CNC(=O)C2)cc1OC1CCCC1 (centres undefined) [ROLIPRAM] | 0.3 | – | – |
| COc1ccc(CN[C@H](C(=O)O)C(C)C)cc1-c1cccc(Cl)c1 | > 100 | > 100 | – |
| Fc1cccc(-c2cc(CNc3cccnc3)cc3c2OCC3)c1 | 1.28 | 0.79 | – |
| COc1ccc(NCc2ccc(OC)c(-c3cccc(Cl)c3)c2)cc1 | > 10 | > 10 | – |
| FC(F)Oc1ccc(CN2CCOCC2)cc1-c1cccc(Cl)c1 | 2.1 | 4.1 | – |
| COc1ccc(CN2CCC(O)CC2)cc1-c1cccc(Cl)c1 | > 10 | > 10 | – |
| O=C(Nc1ccccc1Cl)c1ccc(OC(F)F)c(OCC2CC2)c1 | 0.04 | 0.17 | – |
| COc1ccc(CN[C@@H](Cc2ccccc2)C(=O)O)cc1-c1cccc(Cl)c1 | > 10 | > 10 | – |
| COc1ccc(CNc2cccnc2)cc1-c1cccc(Cl)c1 | 1.2 | 2.3 | Imax [3]: 100% |
| COc1ccc(CN2CCCC(C)C2)cc1-c1cccc(Cl)c1 (centres undefined) | > 10 | > 10 | – |
| COc1ccc(CNc2cccnc2)cc1-c1cccc(F)c1 | 0.38 | 0.34 | Activity (SH-SY5Y [4]): Active; bioavailability [5]: 8.2%; half-life [6]: 1.26 h; Cmax [7]: 14.7 ng/mL; Activity (SH-SY5Y [8]): Non-Toxic; Tmax [9]: 3.33 h; clearance [10]: 103 mL/min/kg; Cmax [11]: 701 ng/mL; AUC(0-t) at 24 h [12]: 84.4 ng·h/mL; Activity (SH-SY5Y [13]): Active; MRT inf [14]: 7.61 h; Tmax [15]: 4.8 min; Vd [16]: 4.35 L/kg; MRT inf [17]: 0.69 h; AUC(0-t) at 24 h [18]: 325 ng·h/mL; AUC(0-inf) [19]: 134 ng·h/mL; AUC(0-inf) [20]: 327 ng·h/mL; Imax [3]: 93%; half-life [21]: 4.32 h |
| FC(F)Oc1ccc(CNc2cccnc2)cc1-c1cccc(Cl)c1 | > 10 | > 10 | – |
| COc1ccc(NCc2ccc(OC)c(-c3cccc(Cl)c3)c2)cn1 | > 10 | > 10 | – |
| COc1ccc(CN2CCOCC2)cc1-c1cccc(F)c1 | 2.1 | 3.7 | – |
| COc1ccc(CNc2ccccn2)cc1-c1cccc(Cl)c1 | > 10 | > 10 | – |
| Clc1cccc(-c2cc(CNc3cccnc3)cc3c2OCC3)c1 | 1.31 | 0.94 | – |
| COC(=O)c1ccc(NCc2ccc(OC)c(-c3cccc(Cl)c3)c2)cc1 | > 10 | > 10 | – |
| COc1ccc(CNc2ccc(Cl)cc2)cc1-c1cccc(Cl)c1 | > 10 | > 10 | – |
| COc1ccc(CN[C@@H](Cc2c[nH]c3ccccc23)C(=O)O)cc1-c1cccc(Cl)c1 | > 100 | > 100 | – |
| COc1ccc(CNc2ccc(F)cc2)cc1-c1cccc(Cl)c1 | > 10 | > 10 | – |
| COc1ccc(CNc2cccc(N(C)C)c2)cc1-c1cccc(Cl)c1 | > 100 | > 100 | – |
| COc1cccc(-c2cc(CNc3cccnc3)ccc2OC)c1 | 1.2 | 0.68 | Activity (SH-SY5Y [4]): Active; Activity (SH-SY5Y [8]): Non-Toxic; Activity (SH-SY5Y [13]): Active; Imax [3]: 90% |
| COc1ccc(CN2CCOCC2)cc1-c1cccc(Cl)c1 | 1.8 | 3.5 | – |
